# Entries after “also recorded” stand apart in the source; their conditions may differ.
# Legend:
# [1] = tested on: streptozotocin-induced type 1 diabetic rats; assay: Blood glucose (Accu-Chek); format: in vivo, rat (male Sprague-Dawley); conditions: STZ-diabetic rats; for effect of treatment on blood glucose level: one month of treatment, N = 24, P < .05 significant
# Procedure: (§1) Groups D, DI, DE, DA, DIA and DEA were induced to type 1 diabetes mellitus by a single intravenous injection of streptozotocin (STZ; 85 mg/kg bw) (Sigma Chemical Co., Saint Louis, Mo, USA) in saline acidified to pH 4.5 with 0.1 M citrate buffer. Three days later, nonfasting blood glucose level was measured using Accu-Chek (Accu-Chek Instant Test; Roche Diagnostics GmbH, Mannheim, Germany); a level of ≥250 mg/dL confirmed type 1 diabetes mellitus.
# (§2) All the animals were weighed weekly, and blood glucose levels were determined using Accu-Chek (Accu-Chek instant test, Roche Diagnostics GmbH, Mannheim, Germany) weekly during one month of treatment.
# [2] = tested on: type 2 diabetic mice; conditions: cited from earlier work
# [3] = target: T1, GLP-1 receptor at the cardiomyocytes (Rattus norvegicus, UniProt P32301); assay: Perfusion of rat heart with ^125I-GLP-1: binding at the cardiomyocytes (CHAPS-treated); design: species or system rat (male Sprague-Dawley); conditions: STZ-diabetic rats, one month of treatment, compared with diabetic (D) and normal (N)
# T1 construct: from tissue; host or cells: in situ perfused heart of male Sprague-Dawley rats (normal, streptozotocin-diabetic and treated groups)
# T1 sequence (P32301 22-463): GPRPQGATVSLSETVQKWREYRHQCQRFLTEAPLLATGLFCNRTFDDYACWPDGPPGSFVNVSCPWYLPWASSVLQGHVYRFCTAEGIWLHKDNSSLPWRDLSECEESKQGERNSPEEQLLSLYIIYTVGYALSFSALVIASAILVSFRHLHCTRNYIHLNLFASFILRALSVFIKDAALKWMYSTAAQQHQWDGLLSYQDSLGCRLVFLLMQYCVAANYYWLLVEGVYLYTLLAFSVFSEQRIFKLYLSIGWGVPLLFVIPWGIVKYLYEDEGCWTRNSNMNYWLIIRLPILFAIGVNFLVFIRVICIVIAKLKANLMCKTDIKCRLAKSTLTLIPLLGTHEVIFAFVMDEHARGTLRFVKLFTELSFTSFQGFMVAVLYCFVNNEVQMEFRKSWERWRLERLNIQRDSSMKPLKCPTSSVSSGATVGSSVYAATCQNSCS
# Procedure: (§3) In addition, the left and right lungs were tied in order to block the blood flow to them and to other organs. The aorta was slightly cut, and a polyethylene catheter was inserted (from cephalad to caudad) into its lumen to reach the aortic valve. The right atrium was punctured, and another catheter was inserted to carry out the perfusate. Both catheters were secured with a suture. A 50 mL syringe filled with heparinized Ringer-Lock buffer containing 20 meq/L K ^+, oxygenated with 95% O2, 5% CO2 at 37°C linked to an infusion pump was attached to the inlet. This solution cleared the heart from blood and clots for 15 minutes; infusion of a Ringer-Lock buffer solution for another 15 minutes cleared the heart from heparin. These steps were followed by the perfusion of a buffer containing 8.25 × 10^−4 nM/L [^125I] […] The perfusate was collected for 20 minutes at specific time intervals (between 0-1, 1-2, 2-3, 3-4, 4-5, 5-6, 6-7, 7-8, 8-9, 9-10, 10–12, 12–15, 15–20 minutes); after each collection, 500 μL of the sample was put in a liquid scintillation vial containing 4 mL of Ecolume scintillation cocktail, which was later assayed for radioactivity by a liquid scintillation analyzer. […]
# [4] = Plasma active GLP-1 (ELISA); format: in vivo, rat (male Sprague-Dawley); conditions: STZ-diabetic rats; active GLP-1 (7–36 and 7–37) by ELISA over one month, N = 6
# Procedure: as §1
# Rats were anesthetized, and blood was collected from the sublingual vein on days 1, 7, 14, 21, and 28 of the treatment period, at a constant time range of 9 to 10 AM. […] A relative fluorescent unit (RFU) curve was plotted using these standards (Figure 1).
# [5] = target: T2, GLP-1 receptor at the coronary endothelium (Rattus norvegicus, UniProt P32301); assay: Perfusion of rat heart with ^125I-GLP-1: binding at the coronary endothelium (buffer alone, CHAPS-untreated); design: species or system rat (male Sprague-Dawley)
# T2 construct: from tissue; host or cells: in situ perfused heart of male Sprague-Dawley rats (normal, streptozotocin-diabetic and treated groups)
# T2 sequence (P32301 22-463): T1 sequence (P32301 22-463)
# Procedure: as §3
# [6] = tested on: left ventricular hypertrophy; conditions: compared with angiotensin receptor blockers; cited from earlier work
# Text: Diabetes mellitus currently affects more than 170 million individuals worldwide. Other than hyperglycemia, diabetes mellitus can cause a 2-3-fold increase in the occurrence of cardiovascular disease (CVD). […] Receptor signaling on the pancreas leads to enhanced insulin biosynth ...
# [7] = tested on: nitric oxide synthase production by endothelial cells; conditions: ref 28 (Dong et al.); cited from earlier work
# Text: (§4) Furthermore, this effect was eliminated upon the removal of the endothelial lining.
# [8] = Body weight after one month of treatment; format: in vivo, rat (male Sprague-Dawley); conditions: STZ-diabetic rats, N = 24
# Procedure: as §1, §2
# [9] = in vivo; cited from earlier work
# Text: Incretin mimetics have been introduced in the market to be used as therapies for diabetes mellitus [[2 ...
# [10] = tested on: GLP-1 receptors on the human coronary endothelial cells; design: method as in earlier work; conditions: ref 27 (Nystrom et al.); cited from earlier work
# [11] = cited from earlier work
# Text: as §4
# [12] = in vivo; cited from earlier work; remark: listed apart in the source
# Text: The intravenous injection of streptozotocin (STZ)—a glucosamine-nitrosourea antibiotic with structural similarity to glucose that is readily taken up by the pancreatic β cells—causes β cells toxicity and ultimately necrosis, leading to deficiency in insulin secretion. The use of Streptozotocin to induce type 1 diabetes in rats is advantageous, because it is easy, fast, and the effect of diabetes on the heart can be evaluated. Our aim was to assess the long-term effects of treatments on ...
compound,measurement,setting,value
COCCCOc1cc(C[C@@H](C[C@H](N)[C@@H](O)C[C@H](C(=O)NCC(C)(C)C(N)=O)C(C)C)C(C)C)ccc1OC [Aliskiren],fraction of treated rats with normal blood glucose levels,"[1]; Aliskiren 50 mg/kg oral qd, after one month",12.5%
same,effect of treatment on blood glucose level,[1],significantly decreased blood glucose levels compared to the untreated
same,insulin sensitivity,[2],improves insulin sensitivity
same,effect of treatment on GLP-1 binding affinity (τ) at the cardiomyocytes,[3],did not lower the affinity
same,effect of treatment on plasma GLP-1 level,[4],normalized
same,effect of treatment on GLP-1 binding affinity (τ) at the coronary endothelium,"[5]; STZ-diabetic rats, one month of treatment, compared with diabetic (D) and normal (N)",did not alter τ from diabetics in the CE; also recorded: no significant change in its affinity; also recorded: did not ameliorate it
same,effect of treatment on K d of GLP-1 at the coronary endothelium,[5]; treated STZ-diabetic rats compared to the normal,extremely significant increase in K d constant
same,left ventricular hypertrophy,[6],reduce left ventricular hypertrophy as efficiently as angiotensin receptor blockers (ARBs)
same,nitric oxide synthase production by endothelial cells,[7],significantly restored
"Exendin-4: GLP-1 analogue, GLP-1 receptor agonist (Sigma); group DE, 0.03 μg/kg ip bid",effect of treatment on blood glucose level,[1],"Although not significant, Exendin-4 treatment showed slight improvement"
same,effect of treatment on plasma GLP-1 level,[4],normalized
same,body weight vs diabetic untreated,[8],significant increase in their body weight
glucagon-like peptide-1 [GLP-1],physiologic half-life,[9],very short physiologic half-life
same,vasodilation on binding to GLP-1 receptors,[10],induce vasodilation
same,vasodilation on GLP-1 infusion,[11],induce vasodilation
Insulin glargine,duration of action,[12],< 24 h

# From publication PMC3124137 (Experimental Diabetes Research, 2011)
